Data as given in patent US8455244B2, “Co-crystallization of ERR-α with a ligand that forms a reversible covalent bond” (Janssen Pharmaceutica N.V., priority 2009, dated 2013).

Columns and labels:
[1] = biological target: T1, ERR-α (Homo sapiens, UniProt P11474); experiment: LC/MS dissociation rate with 20-fold excess Compound 2 as competing ligand; format: binding; set-up: made in house; host or cells: Spodoptera frugiperda (Sf9) insect cells, baculovirus; conditions: ligand 1 μM, ERR-α 0.5 μM, competing ligand 20 μM, 37° C., assumed first order
T1 sequence (P11474 with tags, fused parts or gaps): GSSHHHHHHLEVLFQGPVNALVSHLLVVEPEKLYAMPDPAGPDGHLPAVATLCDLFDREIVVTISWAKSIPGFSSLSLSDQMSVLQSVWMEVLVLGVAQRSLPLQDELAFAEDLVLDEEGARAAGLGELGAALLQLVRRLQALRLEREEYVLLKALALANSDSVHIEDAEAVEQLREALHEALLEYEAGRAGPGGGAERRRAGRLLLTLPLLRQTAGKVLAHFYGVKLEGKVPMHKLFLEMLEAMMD
Description: The progress of the reaction was also expressed as a fraction of the area observed for the complex of ERR-α and the competing ligand over the sum of total area for the complex of ERR-α with the ligand and the complex of ERR-α with the competing ligand.
where k is the apparent rate constant.

[2] = biological target: ERR-α (Homo sapiens, UniProt P11474); experiment: biochemical
Method: For TR-FRET measurements, the reaction was buffered in 25 mM Tris pH 8, 2.5 mM Hepes, 20 mM KCl, 1 mM DTT, and 0.05 mg/mL BSA (-lipids). […] Reactions were allowed to reach equilibrium at 25° C. for 4-18 hours before collecting data on the Analyst from LJL Biosystems (Molecular Devices Sunnyvale, Calif.).
Target sequence in this assay (P11474 with tags, fused parts or gaps limits assumed): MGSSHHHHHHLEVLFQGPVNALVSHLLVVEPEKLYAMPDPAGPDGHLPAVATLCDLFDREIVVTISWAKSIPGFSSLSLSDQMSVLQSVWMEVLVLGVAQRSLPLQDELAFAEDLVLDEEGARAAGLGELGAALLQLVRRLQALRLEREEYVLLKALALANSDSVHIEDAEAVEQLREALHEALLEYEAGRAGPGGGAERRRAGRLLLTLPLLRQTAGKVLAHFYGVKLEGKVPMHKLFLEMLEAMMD

[3] = biological target: T1, ERR-α; experiment: biochemical; conditions: pH 7.9, read-out: ka
Method: To monitor the kinetics of association and dissociation for ligands that formed a complex with ERR-α by forming a covalent bond to Cys325 of ERR-α, LC/MS detection was employed. LC analysis was performed on an Agilent 1100 LC system that was in line with an Agilent MSD TOF for mass detection. Software provided by the vendor was used to deconvolute the ESI positive ion quadrupole time-of-flight spectra. To measure association rates, typically a 1 μM ERR-α solution was mixed with an equal volume of a 2 μM ligand solution. […]
For the apo form of ERR-α, a mass of 27042 was detected, corresponding to an amino acid sequence where the initiator methionine is cleaved followed by N-terminal acetylation.
Association and dissociation rates for ligands were determined by fitting fractional values obtained for the progress of the reaction as a function of time using a single exponential equation progress of reaction=e^−kt
where k is the apparent rate constant. For the dissociation experiments, the reaction is assumed to be first order and dissociation rates, kd, are expressed as s^−1. For the association rates, k^a, the reaction is assumed to be second order and the rates are expressed as M^−1s^−1 by dividing the apparent rate constants by the concentration of the protein determined by experimental conditions (Table 4).

| kd [1] | Compound | EC50 [2] | kon [3] |
| --- | --- | --- | --- |
| 2.05e-05 s⁻¹ | COc1cc(/C=C2\SC(N)=NC2=O)ccc1Oc1ccc(C#N)cc1C(F)(F)F [Compound 5] |  |  |
| 1.53e-05 s⁻¹ | COc1cc(/C=C2\SC(N3CCN(C)CC3)=NC2=O)ccc1Oc1ccc(C#N)cc1C(F)(F)F [Compound 3] |  |  |
| 2.19e-05 s⁻¹ | CN1CCN(C2=NC(=O)/C(=C/c3ccc(Oc4ccc(C#N)cc4C(F)(F)F)c(F)c3)S2)CC1 [Compound 4] |  |  |

Second part, the compound before the results:

| Compound | kd [1] | EC50 [2] | kon [3] |
| --- | --- | --- | --- |
| COC(=O)c1ccc(Oc2ccc(/C=C3\SC(=O)NC3=O)cc2OC)c(C(F)(F)F)c1 [Compound 2] |  | 11 nM |  |
| COc1cc(/C=C2\SC(=O)NC2=O)ccc1Oc1ccc(C#N)cc1C(F)(F)F [Compound 1] | 1.1e-05 s⁻¹ |  | 6600 M⁻¹ s⁻¹ |
